Results reported in patent US20240391940A1, “FUSED RING-CONTAINING COMPOUND, APPLICATION THEREOF, AND COMPOSITION CONTAINING SAME” (GenEros Biopharma Ltd., priority 2020, published 2024).
Where two headings read alike, the source gives them in different places.

Tests used:
[1] = test system: collagen-induced arthritis (CIA) mouse model; settings: for clinical score / body weight: Mean ± SEM
[2] = test system: Apoe KO mouse atherosclerosis model; test: Atherosclerosis model: aortic plaque En-face staining and plaque area; assay type: in vivo, C57BL/6 Apoe KO mice; settings: Apoe KO mice, high-fat diet; GEN1-284s 60 mpk QD oral
Experimental: Method: Apoe KO mice were tested for basal blood lipid levels and divided into a normal control group and a high-fat group. After 8 weeks of housing, the mice from the high-fat group were divided into 4 groups of about 8: a normal diet group (Chow), a high-fat diet model group (HFD), an Atorvastatin positive group (HFD+atorvastatin 5 mpk, QD), and a GEN1-284s group (284-60 mpk, QD). Oral administration was performed for 8 consecutive weeks, and the effect of the compound on the following indicators in Apoe KO mice was observed: 4 blood lipid tests (TC, TG, HDL-C and LDL-C), aortic plaque En-face staining, and pathological oil red staining of the cardiac outflow tract.
Mice from the groups except for the normal diet control group (Chow) were fed with high-fat feed every day for […]. From week 9, each group was orally administered solvent or a corresponding test compound, and body weight data were recorded every day for 8 consecutive weeks. After the first 8 weeks' high-fat diet, blood samples were taken and centrifuged to separate serum, and the serum was tested for blood lipid levels (TCHO, TG, LDL-C and HDL-C). The mice were randomly grouped according to the TCHO results and body weight. During the subsequent 8 weeks of administration, blood lipid tests (TCHO, TG, LDL-C and HDL-C) were run once every 4 weeks.
At the end of the experiment, the mice were euthanized by CO2 inhalation, and their hearts and aortas (from the aortic arch to the iliac artery) were isolated. The isolated artery was dissected longitudinally from the aortic arch to the iliac artery, fixed in 4% paraformaldehyde for 30 min, synchronized with 60% isopropanol for 10 min, then stained in 60% oil red for 30 min, and then washed with 60% isopropanol 3 times for 5 min each time. Finally, the stained aorta was washed with deionized water and photographed. The proportion of red plaque areas was measured using Image Pro Plus 6.0 (Media Cybernetics, MD, US).

Structure (SMILES): O=C(Cc1ccc2ncccc2c1)N1CCC(n2c(=O)n(COP(=O)([O-])[O-])c3cccc(C(F)(F)F)c32)CC1.[Na+].[Na+] [GEN1-284 salt, (2-Oxo-3-(1-(2-(quinolin-6-yl)acetyl)piperidin-4-yl)-4-(trifluoromethyl)-2,3-dihydro-1H-benzo[d]imidazol-1-yl)methyl disodium phosphate]
- Day on which consistent significant inhibition of the score of arthritis began ([1]; CIA mice, GEN1-284s 50 mg/kg): 32 days
- Histomorphological effect on arthritis ([1]; CIA mice, GEN1-284s 50 mg/kg): tendency to relieve arthritis in animals
- Inhibition rate of clinical score curve AUC relative to vehicle control group ([1]; CIA mice, GEN1-284s 50 mg/kg): 56.9%
- Pathology total score ([1]; CIA mice, GEN1-284s 50 mg/kg): lower than that of the vehicle control group
- clinical score ([1]; CIA mice, GEN1-284s 50 mg/kg p.o. QD from day 28, day 21): 0.0 ± 0.00
- clinical score ([1]; CIA mice, GEN1-284s 50 mg/kg p.o. QD from day 28, day 25): 0.3 ± 0.16
- clinical score ([1]; CIA mice, GEN1-284s 50 mg/kg p.o. QD from day 28, day 28): 0.6 ± 0.26
- clinical score ([1]; CIA mice, GEN1-284s 50 mg/kg p.o. QD from day 28, day 29): 0.8 ± 0.25
- clinical score ([1]; CIA mice, GEN1-284s 50 mg/kg p.o. QD from day 28, day 32): 1.3 ± 0.31
- clinical score ([1]; CIA mice, GEN1-284s 50 mg/kg p.o. QD from day 28, day 34): 1.8 ± 0.56
- clinical score ([1]; CIA mice, GEN1-284s 50 mg/kg p.o. QD from day 28, day 36): 2.4 ± 0.84
- clinical score ([1]; CIA mice, GEN1-284s 50 mg/kg p.o. QD from day 28, day 39): 2.9 ± 0.90
- body weight ([1]; CIA mice, GEN1-284s 50 mg/kg, day 21): 20.64 ± 0.23
- body weight ([1]; CIA mice, GEN1-284s 50 mg/kg, day 25): 20.73 ± 0.24
- body weight ([1]; CIA mice, GEN1-284s 50 mg/kg, day 28): 20.65 ± 0.25
- body weight ([1]; CIA mice, GEN1-284s 50 mg/kg, day 29): 20.49 ± 0.25
- body weight ([1]; CIA mice, GEN1-284s 50 mg/kg, day 32): 19.66 ± 0.28
- body weight ([1]; CIA mice, GEN1-284s 50 mg/kg, day 34): 20.41 ± 0.31
- body weight ([1]; CIA mice, GEN1-284s 50 mg/kg, day 36): 20.54 ± 0.36
- body weight ([1]; CIA mice, GEN1-284s 50 mg/kg, day 39): 20.48 ± 0.27
- body weight ([1]; CIA mice, GEN1-284s 50 mg/kg, day 41): 20.95 ± 0.20
- Day on which consistent significant inhibition of the score of arthritis began ([1]; CIA mice, GEN1-284s 150 mg/kg): 34 days
- clinical score ([1]; CIA mice, GEN1-284s 150 mg/kg p.o. QD from day 28, day 21): 0.0 ± 0.00
- clinical score ([1]; CIA mice, GEN1-284s 150 mg/kg p.o. QD from day 28, day 25): 0.0 ± 0.00
- clinical score ([1]; CIA mice, GEN1-284s 150 mg/kg p.o. QD from day 28, day 28): 0.6 ± 0.26
- clinical score ([1]; CIA mice, GEN1-284s 150 mg/kg p.o. QD from day 28, day 29): 0.9 ± 0.40
- clinical score ([1]; CIA mice, GEN1-284s 150 mg/kg p.o. QD from day 28, day 32): 2.0 ± 0.42
- clinical score ([1]; CIA mice, GEN1-284s 150 mg/kg p.o. QD from day 28, day 34): 2.5 ± 0.57
- clinical score ([1]; CIA mice, GEN1-284s 150 mg/kg p.o. QD from day 28, day 36): 3.4 ± 0.78
- clinical score ([1]; CIA mice, GEN1-284s 150 mg/kg p.o. QD from day 28, day 39): 3.9 ± 0.93
- body weight ([1]; CIA mice, GEN1-284s 150 mg/kg, day 21): 20.40 ± 0.23
- body weight ([1]; CIA mice, GEN1-284s 150 mg/kg, day 25): 20.53 ± 0.27
- body weight ([1]; CIA mice, GEN1-284s 150 mg/kg, day 28): 20.64 ± 0.24
- body weight ([1]; CIA mice, GEN1-284s 150 mg/kg, day 29): 20.48 ± 0.29
- body weight ([1]; CIA mice, GEN1-284s 150 mg/kg, day 32): 20.06 ± 0.25
- body weight ([1]; CIA mice, GEN1-284s 150 mg/kg, day 34): 20.41 ± 0.41
- body weight ([1]; CIA mice, GEN1-284s 150 mg/kg, day 36): 20.70 ± 0.35
- body weight ([1]; CIA mice, GEN1-284s 150 mg/kg, day 39): 20.40 ± 0.29
- body weight ([1]; CIA mice, GEN1-284s 150 mg/kg, day 41): 20.91 ± 0.26
- clinical score ([1]; CIA mice, GEN1-284s 300 mg/kg group (500 mg/kg 5 days, then 300 mg/kg) p.o. QD from day 28, day 21): 0.0 ± 0.00
- clinical score ([1]; CIA mice, GEN1-284s 300 mg/kg group (500 mg/kg 5 days, then 300 mg/kg) p.o. QD from day 28, day 25): 0.0 ± 0.00
- clinical score ([1]; CIA mice, GEN1-284s 300 mg/kg group (500 mg/kg 5 days, then 300 mg/kg) p.o. QD from day 28, day 28): 0.6 ± 0.26
- clinical score ([1]; CIA mice, GEN1-284s 300 mg/kg group (500 mg/kg 5 days, then 300 mg/kg) p.o. QD from day 28, day 29): 0.6 ± 0.24
- clinical score ([1]; CIA mice, GEN1-284s 300 mg/kg group (500 mg/kg 5 days, then 300 mg/kg) p.o. QD from day 28, day 32): 2.0 ± 0.58
- clinical score ([1]; CIA mice, GEN1-284s 300 mg/kg group (500 mg/kg 5 days, then 300 mg/kg) p.o. QD from day 28, day 34): 2.5 ± 0.87
- clinical score ([1]; CIA mice, GEN1-284s 300 mg/kg group (500 mg/kg 5 days, then 300 mg/kg) p.o. QD from day 28, day 36): 4.0 ± 1.15
- clinical score ([1]; CIA mice, GEN1-284s 300 mg/kg group (500 mg/kg 5 days, then 300 mg/kg) p.o. QD from day 28, day 39): 5.5 ± 1.19
- clinical score ([1]; CIA mice, GEN1-284s 300 mg/kg group (500 mg/kg 5 days, then 300 mg/kg) p.o. QD from day 28, day 41): 6.3 ± 1.38
- body weight ([1]; CIA mice, GEN1-284s 300 mg/kg group (500 mg/kg 5 days, then 300 mg/kg), day 21): 20.18 ± 0.29
- body weight ([1]; CIA mice, GEN1-284s 300 mg/kg group (500 mg/kg 5 days, then 300 mg/kg), day 25): 20.43 ± 0.27
- body weight ([1]; CIA mice, GEN1-284s 300 mg/kg group (500 mg/kg 5 days, then 300 mg/kg), day 28): 20.65 ± 0.34
- body weight ([1]; CIA mice, GEN1-284s 300 mg/kg group (500 mg/kg 5 days, then 300 mg/kg), day 29): 20.08 ± 0.49
- body weight ([1]; CIA mice, GEN1-284s 300 mg/kg group (500 mg/kg 5 days, then 300 mg/kg), day 32): 19.48 ± 1.02
- body weight ([1]; CIA mice, GEN1-284s 300 mg/kg group (500 mg/kg 5 days, then 300 mg/kg), day 34): 19.30 ± 1.05
- body weight ([1]; CIA mice, GEN1-284s 300 mg/kg group (500 mg/kg 5 days, then 300 mg/kg), day 36): 19.60 ± 0.81
- body weight ([1]; CIA mice, GEN1-284s 300 mg/kg group (500 mg/kg 5 days, then 300 mg/kg), day 39): 19.80 ± 0.96
- body weight ([1]; CIA mice, GEN1-284s 300 mg/kg group (500 mg/kg 5 days, then 300 mg/kg), day 41): 20.30 ± 0.78
- Mortality ([1]; CIA mice, GEN1-284s 500 mg/kg): death was caused among the mice
- Tolerance ([1]; CIA mice, GEN1-284s 50, 150 and 300 mg/kg): good tolerance
- Number of mice that died ([1]; high-dose group (500 mg/kg), day 32): On day 32, 1 mouse in the high-dose group died, and the dissection results showed that: the major abnormality was in the lungs, and no obvious abnormality was found in other organs.
- Formation of atherosclerotic plaques [2]: significantly reduced the formation of atherosclerotic plaques
